From patent publication US20250235543A1, “MODIFIED PROTEINS AND PROTEIN DEGRADERS” (Cullgen (Shanghai), Inc., priority 2021, published 2025)
Like-named read-outs stand apart in the source and are kept apart here.

What was measured:
CDK4 = target: T1, CDK4 (Homo sapiens, UniProt P11802); test: CDK4 percentage degradation in Calu-1 cells (immunoblotting); format: cell-based; settings: for inhibition at 0.2 µM: read-out: CDK4 Degradation (200 nM); for inhibition at 10 µM: read-out: CDK4 Degradation (10 μM)
T1 construct: endogenous in cells; host or cells: Calu-1
In short: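 CDK4 degradation was measured by immunoblotting. Cells were washed in cold PBS and lysed in RIPA buffer with inhibitors for 30 min at 4° C., then spun at 13,000 rpm to clear. After BCA protein determination, lysates were heated at 99° C. for 5 min in Laemmli buffer, resolved on SDS-PAGE, imaged on a ChemiDoc MP with ECL substrate, and band intensities quantified.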

cyclin D1 = test: Cyclin D1 percentage degradation in Calu-1 cells (immunoblotting); format: cell-based; settings: 16 hours
In short: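 Cyclin D1 degradation was assessed by western blot. Clarified lysates, obtained by RIPA lysis with inhibitors and centrifugation at 13,000 rpm, were normalized by BCA protein assay and separated by SDS-PAGE. Bands were detected with Western ECL Substrate on a Bio-Rad ChemiDoc MP Imaging system and quantified in Image Lab software to derive percentage degradation.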

T1 sequence (P11802 2-303 limits assumed): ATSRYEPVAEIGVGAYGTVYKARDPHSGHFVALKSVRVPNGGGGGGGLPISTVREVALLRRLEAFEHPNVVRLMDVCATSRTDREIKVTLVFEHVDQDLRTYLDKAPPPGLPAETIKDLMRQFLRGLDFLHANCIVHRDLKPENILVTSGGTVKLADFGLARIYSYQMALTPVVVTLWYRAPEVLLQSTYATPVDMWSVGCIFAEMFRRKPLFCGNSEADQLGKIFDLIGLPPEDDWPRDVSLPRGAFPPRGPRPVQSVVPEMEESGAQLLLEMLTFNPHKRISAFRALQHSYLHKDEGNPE
T1 sequence (P24385 whole entry partner): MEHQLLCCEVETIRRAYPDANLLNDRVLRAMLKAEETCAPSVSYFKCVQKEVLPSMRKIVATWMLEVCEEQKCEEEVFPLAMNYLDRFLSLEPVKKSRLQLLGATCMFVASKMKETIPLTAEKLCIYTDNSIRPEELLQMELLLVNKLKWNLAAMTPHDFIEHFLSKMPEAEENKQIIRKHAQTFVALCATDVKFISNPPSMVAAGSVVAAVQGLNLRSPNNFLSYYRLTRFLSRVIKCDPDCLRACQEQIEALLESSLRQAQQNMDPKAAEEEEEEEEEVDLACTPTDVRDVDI
T1 sequence (Q16531 2-1140 limits assumed, further chain): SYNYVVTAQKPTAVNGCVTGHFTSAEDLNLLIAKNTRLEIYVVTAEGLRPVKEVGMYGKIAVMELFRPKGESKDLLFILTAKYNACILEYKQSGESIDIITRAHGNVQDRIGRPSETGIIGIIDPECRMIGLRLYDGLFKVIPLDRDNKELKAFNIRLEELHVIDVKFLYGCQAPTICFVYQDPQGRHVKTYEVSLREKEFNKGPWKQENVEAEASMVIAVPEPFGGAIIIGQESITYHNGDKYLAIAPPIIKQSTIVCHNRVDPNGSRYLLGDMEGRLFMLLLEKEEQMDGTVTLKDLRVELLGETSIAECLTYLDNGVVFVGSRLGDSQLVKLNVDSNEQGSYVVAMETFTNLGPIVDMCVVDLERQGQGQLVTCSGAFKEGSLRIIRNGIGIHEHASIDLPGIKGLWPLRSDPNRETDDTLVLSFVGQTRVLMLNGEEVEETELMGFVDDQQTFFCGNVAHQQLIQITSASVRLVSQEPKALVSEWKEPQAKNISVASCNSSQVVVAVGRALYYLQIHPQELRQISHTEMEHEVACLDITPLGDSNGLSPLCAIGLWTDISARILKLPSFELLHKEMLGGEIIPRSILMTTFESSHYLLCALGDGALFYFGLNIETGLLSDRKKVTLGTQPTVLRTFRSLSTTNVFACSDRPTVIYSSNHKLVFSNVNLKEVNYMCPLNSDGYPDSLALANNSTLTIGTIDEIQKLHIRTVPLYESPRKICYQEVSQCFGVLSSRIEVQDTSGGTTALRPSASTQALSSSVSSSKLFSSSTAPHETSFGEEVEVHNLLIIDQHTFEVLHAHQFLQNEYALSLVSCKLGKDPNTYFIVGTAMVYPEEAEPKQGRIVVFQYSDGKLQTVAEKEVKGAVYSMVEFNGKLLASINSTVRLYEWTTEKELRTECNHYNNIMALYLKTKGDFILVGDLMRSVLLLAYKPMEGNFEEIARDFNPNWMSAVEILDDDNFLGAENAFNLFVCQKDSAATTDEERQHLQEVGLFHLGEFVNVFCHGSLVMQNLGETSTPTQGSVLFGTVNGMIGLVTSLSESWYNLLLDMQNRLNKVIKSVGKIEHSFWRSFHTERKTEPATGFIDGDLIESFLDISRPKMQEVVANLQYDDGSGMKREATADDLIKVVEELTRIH

SMILES	inhibition at 0.2 µM (CDK4; Calu-1 cells, 200 nM, 16 hours)	inhibition at 10 µM (CDK4; Calu-1 cells, 16 hours)	CyclinD1 Degradation (200 nM) (cyclin D1)	inhibition at 0.2 µM (CDK4; Calu-1, 16 h)	CyclinD1 Degradation (10 μM) (cyclin D1)
CC(=O)c1c(C)c2cnc(Nc3ccc(N4CCN(CC(=O)NCCOCCOCCC(=O)Nc5ccc(C)cc5C(=O)Nc5nc(C)c(C)s5)CC4)cn3)nc2n(C2CCCC2)c1=O [CPD-141, 2-(3-(2-(2-(2-(4-(6-((6-Acetyl-8-cyclopentyl-5-methyl-7-oxo-7,8-dihydropyrido[2,3-d]pyrimidin-2-yl)amino)pyridin-3-yl)piperazin-1-yl)acetamido)ethoxy)ethoxy)propanamido)-N-(4,5-dimethylthiazol-2-yl)-5-methylbenzamide]	50 to 80%		A (protein percentage degradation >=80%)		
CC(=O)c1c(C)c2cnc(Nc3ccc(N4CCN(CC(=O)NCCCNc5cccc(C(=O)Nc6nc(C)c(C)s6)c5C)CC4)cn3)nc2n(C2CCCC2)c1=O [CPD-098, 3-((3-(2-(4-(6-((6-Acetyl-8-cyclopentyl-5-methyl-7-oxo-7,8-dihydropyrido[2,3-d]pyrimidin-2-yl)amino)pyridin-3-yl)piperazin-1-yl)acetamido)propyl)amino)-N-(4,5-dimethylthiazol-2-yl)-2-methylbenzamide]	< 30%		D (protein percentage degradation <30%)		
CC(=O)c1c(C)c2cnc(Nc3ccc(N4CCN(C(=O)CCC(=O)Nc5ccccc5C(=O)Nc5nc(C)c(C)s5)CC4)cn3)nc2n(C2CCCC2)c1=O [CPD-153, 2-(4-(4-(6-((6-Acetyl-8-cyclopentyl-5-methyl-7-oxo-7,8-dihydropyrido[2,3-d]pyrimidin-2-yl)amino)pyridin-3-yl)piperazin-1-yl)-4-oxobutanamido)-N-(4,5-dimethylthiazol-2-yl)benzamide]			D (protein percentage degradation <30%)	< 30%	
CC(=O)c1c(C)c2cnc(Nc3ccc(N4CCN(CC(=O)NCCOCCC(=O)Nc5ccccc5C(=O)Nc5nc(C)c(C)s5)CC4)cn3)nc2n(C2CCCC2)c1=O [CPD-147, 2-(3-(2-(2-(4-(6-((6-Acetyl-8-cyclopentyl-5-methyl-7-oxo-7,8-dihydropyrido[2,3-d]pyrimidin-2-yl)amino)pyridin-3-yl)piperazin-1-yl)acetamido)ethoxy)propanamido)-N-(4,5-dimethylthiazol-2-yl)benzamide]	< 30%		D (protein percentage degradation <30%)		
CC(=O)c1c(C)c2cnc(Nc3ccc(N4CCN(CC(=O)NCCOCCOCCOCCOCCNC(=O)CNc5ccc(C(=O)Nc6ncc(C)s6)c(C)c5)CC4)cn3)nc2n(C2CCCC2)c1=O [CPD-013, 4-((20-(4-(6-((6-Acetyl-8-cyclopentyl-5-methyl-7-oxo-7,8-dihydropyrido[2,3-d]pyrimidin-2-yl)amino)pyridin-3-yl)piperazin-1-yl)-2,19-dioxo-6,9,12,15-tetraoxa-3,18-diazaicosyl)amino)-2-methyl-N-(5-methylthiazol-2-yl)benzamide]	< 30%		D (protein percentage degradation <30%)		
CC(=O)c1c(C)c2cnc(Nc3ccc(N4CCN(CC(=O)NCCCCC(=O)Nc5ccccc5C(=O)Nc5ccc(C)cn5)CC4)cn3)nc2n(C2CCCC2)c1=O [CPD-269, 2-(5-(2-(4-(6-((6-Acetyl-8-cyclopentyl-5-methyl-7-oxo-7,8-dihydropyrido[2,3-d]pyrimidin-2-yl)amino)pyridin-3-yl)piperazin-1-yl)acetamido)pentanamido)-N-(5-methylpyridin-2-yl)benzamide]	50 to 80%		B (protein percentage degradation <80%, and >=50%)		
Cc1nc(NC(=O)c2ccccc2NC(=O)CCOCCOCCNC(=O)CN2CCN(c3ccc(Nc4ncc(F)c(-c5cc(F)c6nc(C)n(C(C)C)c6c5)n4)nc3)CC2)sc1C [CPD-309, N-(4,5-Dimethylthiazol-2-yl)-2-(3-(2-(2-(2-(4-(6-((5-fluoro-4-(4-fluoro-1-isopropyl-2-methyl-1H-benzo[d]imidazol-6-yl)pyrimidin-2-yl)amino)pyridin-3-yl)piperazin-1-yl)acetamido)ethoxy)ethoxy)propanamido)benzamide]		30 to 50%			D (protein percentage degradation < 30%)
CC(=O)c1c(C)c2cnc(Nc3ccc(N4CCN(C(=O)CCOCCOCCOCCOCCOCCNc5ccc(C)c(C(=O)Nc6nc(C)c(C)s6)c5)CC4)cn3)nc2n(C2CCCC2)c1=O [CPD-134, 5-((18-(4-(6-((6-Acetyl-8-cyclopentyl-5-methyl-7-oxo-7,8-dihydropyrido[2,3-d]pyrimidin-2-yl)amino)pyridin-3-yl)piperazin-1-yl)-18-oxo-3,6,9,12,15-pentaoxaoctadecyl)amino)-N-(4,5-dimethylthiazol-2-yl)-2-methylbenzamide]			D (protein percentage degradation <30%)	< 30%	
CC(=O)c1c(C)c2cnc(Nc3ccc(N4CCN(C(=O)CCCCCNc5cccc(C(=O)Nc6nc(C)c(C)s6)c5C)CC4)cn3)nc2n(C2CCCC2)c1=O [CPD-137, 3-((6-(4-(6-((6-Acetyl-8-cyclopentyl-5-methyl-7-oxo-7,8-dihydropyrido[2,3-d]pyrimidin-2-yl)amino)pyridin-3-yl)piperazin-1-yl)-6-oxohexyl)amino)-N-(4,5-dimethylthiazol-2-yl)-2-methylbenzamide]			D (protein percentage degradation <30%)	< 30%	
CC(=O)c1c(C)c2cnc(Nc3ccc(N4CCN(CC(=O)NCCOCCOCCC(=O)Nc5c(C(=O)Nc6ccc(C)cn6)ccc6ncccc56)CC4)cn3)nc2n(C2CCCC2)c1=O [CPD-362, 5-(3-(2-(2-(2-(4-(6-((6-Acetyl-8-cyclopentyl-5-methyl-7-oxo-7,8-dihydropyrido[2,3-d]pyrimidin-2-yl)amino)pyridin-3-yl)piperazin-1-yl)acetamido)ethoxy)ethoxy)propanamido)-N-(5-methylpyridin-2-yl)quinoline-6-carboxamide]	< 30%		D (protein percentage degradation <30%)		

Second part, led by results:

inhibition at 0.2 µM (CDK4; Calu-1 cells, 200 nM, 16 hours)	inhibition at 10 µM (CDK4; Calu-1 cells, 16 hours)	SMILES	CyclinD1 Degradation (200 nM) (cyclin D1)	inhibition at 0.2 µM (CDK4; Calu-1, 16 h)	CyclinD1 Degradation (10 μM) (cyclin D1)
	< 30%	Cc1nc(NC(=O)c2ccccc2NC(=O)CCOCCOCCOCCOCCNC(=O)CN2CCN(Cc3ccc(Nc4ncc(F)c(-c5cc(F)c6nc(C)n(C(C)C)c6c5)n4)nc3)CC2)sc1C [CPD-283, N-(4,5-Dimethylthiazol-2-yl)-2-(1-(4-((6-((5-fluoro-4-(4-fluoro-1-isopropyl-2-methyl-1H-benzo[d]imidazol-6-yl)pyrimidin-2-yl)amino)pyridin-3-yl)methyl)piperazin-1-yl)-2-oxo-6,9,12,15-tetraoxa-3-azaoctadecan-18-amido)benzamide]			D (protein percentage degradation < 30%)
< 30%		CNC(=O)c1ccc(C)nc1NCCCCCCCNC(=O)CN1CCN(c2ccc(Nc3ncc4c(C)c(C(C)=O)c(=O)n(C5CCCC5)c4n3)nc2)CC1 [CPD-340]	D (protein percentage degradation <30%)		
50 to 80%		CC(=O)c1c(C)c2cnc(Nc3ccc(N4CCN(CC(=O)NCCOCCOCCC(=O)Nc5ccccc5C(=O)Nc5cc(C)[nH]n5)CC4)cn3)nc2n(C2CCCC2)c1=O [CPD-074, 2-(3-(2-(2-(2-(4-(6-((6-Acetyl-8-cyclopentyl-5-methyl-7-oxo-7,8-dihydropyrido[2,3-d]pyrimidin-2-yl)amino)pyridin-3-yl)piperazin-1-yl)acetamido)ethoxy)ethoxy)propanamido)-N-(5-methyl-1H-pyrazol-3-yl)benzamide]	B (protein percentage degradation <80%, and >=50%)		
< 30%		CC(=O)c1c(C)c2cnc(Nc3ccc(N4CCN(CC(=O)NCCOCCOCCOCCOCCOCCNc5ccc(C(=O)Nc6ncc(F)s6)c(C)c5)CC4)cn3)nc2n(C2CCCC2)c1=O [CPD-028, 4-((1-(4-(6-((6-Acetyl-8-cyclopentyl-5-methyl-7-oxo-7,8-dihydropyrido[2,3-d]pyrimidin-2-yl)amino)pyridin-3-yl)piperazin-1-yl)-2-oxo-6,9,12,15,18-pentaoxa-3-azaicosan-20-yl)amino)-N-(5-fluorothiazol-2-yl)-2-methylbenzamide]	D (protein percentage degradation <30%)		
< 30%		CC(=O)c1c(C)c2cnc(Nc3ccc(N4CCN(CC(=O)NCCOCCOCCOCCOCCOCCNc5ccc(C(=O)Nc6ncc(C7CC7)s6)c(C)c5)CC4)cn3)nc2n(C2CCCC2)c1=O [CPD-029, 4-((1-(4-(6-((6-Acetyl-8-cyclopentyl-5-methyl-7-oxo-7,8-dihydropyrido[2,3-d]pyrimidin-2-yl)amino)pyridin-3-yl)piperazin-1-yl)-2-oxo-6,9,12,15,18-pentaoxa-3-azaicosan-20-yl)amino)-N-(5-cyclopropylthiazol-2-yl)-2-methylbenzamide]	D (protein percentage degradation <30%)		
	50 to 80%	Cc1nc(NC(=O)c2ccccc2NC(=O)CCCNC(=O)CN2CCN(c3ccc(Nc4ncc5cc(C(=O)N(C)C)n(C6CCCC6)c5n4)nc3)CC2)sc1C [CPD-288, 7-Cyclopentyl-2-((5-(4-(2-((4-((2-((4,5-dimethylthiazol-2-yl)carbamoyl)phenyl)amino)-4-oxobutyl)amino)-2-oxoethyl)piperazin-1-yl)pyridin-2-yl)amino)-N,N-dimethyl-7H-pyrrolo[2,3-d]pyrimidine-6-carboxamide]			A (protein percentage degradation >= 80%)
